Results reported in patent publication US12378249B2, “Isoquinoline compounds and uses thereof” (Genentech, Inc., priority 2018, dated 2025).

Tests used:
HPK1 = HPK1 (Homo sapiens (Human), UniProt Q92918, S171E/T165E); experiment: HPK1-FL HTRF Enzymatic Assay (HTRF); assay type: biochemical; conditions: HPK full length T165E S171E 0.125 nM, ATP 1 mM, Biotin-SLP76 100 nM, read-out: HPK1 Ki (nM), H = HTRF
Summary of the method: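 Ki derived from % activity calculated from the TR-FRET 665/620 ratio, using Eu-anti-pSLP76 and SA-XL665 detection added for 60 min. Reaction: compound preincubated 30 min with full-length double-mutant HPK1, then 60 min with Biotin-SLP-76 and 1 mM ATP, pH 7.5 HEPES buffer.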

[1] = tested on: primary human pan T cells; experiment: Human T-cell IL2 Induction Assay; assay type: cell-based; conditions: anti-CD3/anti-CD28 stimulated, 4 hours
Description: Example B3: Human T-cell IL2 Induction Assay
Anti-CD3 and anti-CD28 activates TCR signaling in primary human pan T cells leading to IL-2 promoter induction. Secreted IL-2 in cell culture supernatant is detected by electrochemiluminescence using a capture antibody against IL-2 and an anti-IL-2 antibody labeled with SULFO-tag.
See www.mesoscale.com for additional electrochemiluminescence technology information.
Incubate primary human pan T cells with varying concentrations of test compounds for 30 minutes in a humidified incubator at 37° C. and 5% CO2. Transfer cells to a plate pre-coated with a fixed concentration of anti-human CD3 (determined separately for each donor lot) and add soluble anti-human CD28 (final concentration=1 μg/ml). Stimulate cells in a humidified incubator at 37° C. and 5% CO2 for 4 hours. Transfer 25 μl of supernatant to a MSD single spot plate pre-coated with an anti-human IL-2 antibody. Incubate MSD plate overnight at 4° C. with gentle shaking. Wash MSD plate 4× with wash buffer. Add SULFO-tagged detection antibody at a 1:50 dilution and incubate at room temperature shaking for 2 hours. Wash MSD plate 4× with wash buffer and add 150 μl 2×MSD read buffer. Read on an MSD instrument. Normalize data to stimulated/untreated controls to calculate % activity at each concentration of compound.
• Frozen Primary Human Pan-T Cells (StemCell Technologies #70024) • anti-human CD3 (OKT3 clone) (eBioscience #16-0037-81) • anti-human CD28 (CD28.2 clone) (BD #555725) • 96-well Human IL-2 tissue culture kit (MSD #K151AHB-4) Instrumentation: • Biomek FX for liquid handling (Beckman Coulter) • MSD SECTOR S 600 (Meso Scale Discovery)
Exemplary compounds of Formula (I) were tested in the human T-cell IL-2 induction assays. The % increase measured for IL-2 in cells treated by the test compounds relative to untreated cells are provided in Table B2 for certain compounds.

Sequence of HPK1 (Q92918 whole entry T165E/S171E): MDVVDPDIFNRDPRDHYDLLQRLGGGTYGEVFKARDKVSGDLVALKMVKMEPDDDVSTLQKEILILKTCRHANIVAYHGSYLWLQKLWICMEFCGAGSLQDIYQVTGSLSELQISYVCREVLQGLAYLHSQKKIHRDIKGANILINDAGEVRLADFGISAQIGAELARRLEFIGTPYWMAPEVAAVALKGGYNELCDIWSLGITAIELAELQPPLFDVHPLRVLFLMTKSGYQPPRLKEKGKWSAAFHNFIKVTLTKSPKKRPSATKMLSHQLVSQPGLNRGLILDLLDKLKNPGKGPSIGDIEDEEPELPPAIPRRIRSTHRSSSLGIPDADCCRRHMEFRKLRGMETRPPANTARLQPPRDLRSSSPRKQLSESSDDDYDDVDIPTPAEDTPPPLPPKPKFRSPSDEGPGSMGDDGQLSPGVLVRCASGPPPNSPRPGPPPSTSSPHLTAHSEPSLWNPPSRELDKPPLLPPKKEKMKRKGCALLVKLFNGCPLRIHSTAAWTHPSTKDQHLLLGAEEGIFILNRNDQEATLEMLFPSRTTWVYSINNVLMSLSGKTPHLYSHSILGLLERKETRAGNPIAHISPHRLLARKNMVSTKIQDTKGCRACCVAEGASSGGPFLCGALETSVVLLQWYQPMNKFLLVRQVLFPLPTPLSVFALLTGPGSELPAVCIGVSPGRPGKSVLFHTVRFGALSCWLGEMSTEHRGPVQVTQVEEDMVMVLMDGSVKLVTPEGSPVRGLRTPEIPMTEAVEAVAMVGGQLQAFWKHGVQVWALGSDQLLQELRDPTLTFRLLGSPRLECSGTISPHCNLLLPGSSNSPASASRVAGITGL

Row | Structure (SMILES) | Ki (HPK1) | % IL-2 increase relative to untreated cells ([1]; assayed concentration 0.31 μM) | % IL-2 increase relative to untreated cells ([1]; assayed concentration 0.10 μM)
1 | Cc1c(N)cncc1-c1cc2cc(Nc3cc4n(n3)Cc3nncn3CC4)ncc2cc1F [Compound 139, N-(6-(5-amino-4-methylpyridin-3-yl)-7-fluoroisoquinolin-3-yl)-5,6-dihydro-11H-pyrazolo[1,5-d][1,2,4]triazolo[4,3-a][1,4]diazepin-8-amine] | 0.076 nM | 154% | –
2 | Cc1c(N)cncc1-c1cc2cc(Nc3cc4n(n3)CC(=O)N(C(C)C)CC4)ncc2cc1F [Compound 119, 2-((6-(5-amino-4-methylpyridin-3-yl)-7-fluoroisoquinolin-3-yl)amino)-6-isopropyl-5,6-dihydro-4H-pyrazolo[1,5-d][1,4]diazepin-7(8H)-one] | 0.05 nM | – | 542%
3 | Cc1c(-c2cc3cc(Nc4cc5n(n4)CC(=O)N(C(C)C)C[C@@H]5O)ncc3cc2F)cnc2c1NCCO2 [Compound 141b, (S)-2-((7-fluoro-6-(8-methyl-2,3-dihydro-1H-pyrido[2,3-b][1,4]oxazin-7-yl)isoquinolin-3-yl)amino)-4-hydroxy-6-isopropyl-5,6-dihydro-4H-pyrazolo[1,5-d][1,4]diazepin-7(8H)-one] | – | 350% | –
4 | Cc1c(N)cncc1-c1cc2cc(Nc3cc4n(n3)CC(=O)N(C(C)C)CC4)ncc2c(C)c1C#N [Compound 130, 6-(5-amino-4-methyl-3-pyridyl)-3-[(6-isopropyl-7-oxo-5,8-dihydro-4H-pyrazolo[1,5-d][1,4]diazepin-2-yl)amino]-8-methyl-isoquinoline-7-carbonitrile] | 0.068 nM | – | 308%
5 | Cc1c(N)cncc1-c1cc2cc(Nc3cc4n(n3)CC(=O)N(C(C)C)CC4)ncc2cc1Cl [Compound 140, 2-((6-(5-amino-4-methylpyridin-3-yl)-7-chloroisoquinolin-3-yl)amino)-6-isopropyl-5,6-dihydro-4H-pyrazolo[1,5-d][1,4]diazepin-7(8H)-one] | 0.086 nM | – | 304%
6 | Cc1c(N)cncc1-c1cc2cc(Nc3cc4n(n3)CC(=O)N(C(C)C)CC4)ncc2c(F)c1F [Compound 118, 2-((6-(5-amino-4-methylpyridin-3-yl)-7,8-difluoroisoquinolin-3-yl)amino)-6-isopropyl-5,6-dihydro-4H-pyrazolo[1,5-d][1,4]diazepin-7(8H)-one] | 0.065 nM | 400% | –
